Here are results for 19 compounds from patent US11078216B2, “Bisaryl amides as NRF2 activators” (GLAXOSMITHKLINE INTELLECTUAL PROPERTY DEVELOPMENT LIMITED, priority 2016, dated 2021).

This test concerns NRF2 (NQO1 activity as marker for NRF2 activation), BEAS-2B cells. Put plainly: BEAS-2B NQO1 MTT Assay. It counts as cell-based. The note with it: Homo sapiens, EC50 of NQO1 specific activity induction, 48 hours incubation, read-out: EC50. The method in brief:
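BEAS-2B cells were exposed to compound for 48 h at 37° C, 5% CO2, then lysed. NQO1 activity was measured kinetically by MTT reduction at 570 nm over 30 minutes; EC50 came from 3-parameter fit of Delta OD/min versus log concentration.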

By EC50 is commonly meant the concentration that produces a half-maximal response.

The structures appear in SMILES notation.

`CC[C@@H]1CN(Cc2cc([C@H](CC(=O)Nc3cnccc3C)c3ccc4c(nnn4CC)c3C)ccc2C)S(=O)(=O)c2cccnc2O1` [Example 10, (S)-3-(3-(((R)-4-Ethyl-1,1-dioxido-3,4-dihydro-2H-pyrido[2,3-b][1,4,5]oxathiazepin-2-yl)methyl)-4-methylphenyl)-3-(1-ethyl-4-methyl-1H-benzo[d][1,2,3]triazol-5-yl)-N-(4-methylpyridin-3-yl)propanamide]: the EC50 lay within 100 to 1000 nM.
In the case of `CC[C@@H]1CN(Cc2cc([C@H](CC(=O)Nc3ccncc3)c3ccc4c(nnn4CC)c3C)ccc2C)S(=O)(=O)c2cccnc2O1` [Example 19, (S)-3-(3-(((R)-4-Ethyl-1,1-dioxido-3,4-dihydro-2H-pyrido[2,3-b][1,4,5]oxathiazepin-2-yl)methyl)-4-methylphenyl)-3-(1-ethyl-4-methyl-1H-benzo[d][1,2,3]triazol-5-yl)-N-(pyridin-4-yl)propanamide] it was 100 to 1000 nM; in that of `CC[C@@H]1CN(Cc2cc([C@@H](c3ccc4c(nnn4CC)c3C)C(C)(C)NC(=O)c3ccn(C)c(=O)c3)ccc2C)S(=O)(=O)c2ccccc2O1` [Example 141, N-((S)-1-(3-(((R)-4-Ethyl-1,1-dioxido-3,4-dihydro-2H-benzo[b][1,4,5]oxathiazepin-2-yl)methyl)-4-methylphenyl)-1-(1-ethyl-4-methyl-1H-benzo[d][1,2,3]triazol-5-yl)-2-methylpropan-2-yl)-1-methyl-2-oxo-1,2-dihydropyridine-4-carboxamide], 10 to 100 nM.
In the case of `CC[C@@H]1CN(Cc2cc([C@@H](c3ccc4c(nnn4CC)c3C)C(C)(C)NC(=O)CC(=O)O)ccc2C)S(=O)(=O)c2ccccc2O1` [Example 142, 3-(((S)-1-(3-(((R)-4-Ethyl-1,1-dioxido-3,4-dihydro-2H-benzo[b][1,4,5]oxathiazepin-2-yl)methyl)-4-methylphenyl)-1-(1-ethyl-4-methyl-1H-benzo[d][1,2,3]triazol-5-yl)-2-methylpropan-2-yl)amino)-3-oxopropanoic acid] it was 10 to 100 nM; in that of `CC[C@@H]1CN(Cc2cc([C@@H](c3ccc4c(nnn4CC)c3C)C(C)(C)NC(=O)c3c[nH]cn3)ccc2C)S(=O)(=O)c2ccccc2O1` [Example 148, N-((S)-1-(3-(((R)-4-Ethyl-1,1-dioxido-3,4-dihydro-2H-benzo[b][1,4,5]oxathiazepin-2-yl)methyl)-4-methylphenyl)-1-(1-ethyl-4-methyl-1H-benzo[d][1,2,3]triazol-5-yl)-2-methylpropan-2-yl)-1H-imidazole-4-carboxamide], 100 to 1000 nM; in that of `CC[C@@H]1CN(Cc2cc([C@@H](c3ccc4c(nnn4CC)c3C)C(C)(C)C(=O)Nc3cncnc3)ccc2C)S(=O)(=O)c2ccc(Br)cc2O1` [Example 97, (S)-3-(3-(((R)-7-Bromo-4-ethyl-1,1-dioxido-3,4-dihydro-2H-benzo[b][1,4,5]oxathi-azepin-2-yl)methyl)-4-methylphenyl)-3-(1-ethyl-4-methyl-1H-benzo[d][1,2,3]triazol-5-yl)-2,2-dimethyl-N-(pyrimidin-5-yl)propanamide], 1 to 10 nM.
With `CC[C@@H]1CN(Cc2cc([C@@H](c3ccc4c(nnn4CC)c3C)C(C)(C)C(=O)NCCC(F)(F)F)ccc2C)S(=O)(=O)c2ccccc2O1` [Example 206, (S)-3-(3-(((R)-4-ethyl-1,1-dioxido-3,4-dihydro-2H-benzo[b][1,4,5]oxathiazepin-2-yl)methyl)-4-methylphenyl)-3-(1-ethyl-4-methyl-1H-benzo[d][1,2,3]triazol-5-yl)-2,2-dimethyl-N-(3,3,3-trifluoropropyl)propanamide] the figure was 10 to 100 nM.
In the case of `CC[C@@H]1CN(Cc2cc([C@@H](c3ccc4c(nnn4CC)c3C)C(C)(C)C(=O)Nc3cnc(OCC(=O)OC)nc3)ccc2C)S(=O)(=O)c2ccccc2O1` [Example 190, Methyl 2-((5-((S)-3-(3-(((R)-4-ethyl-1,1-dioxido-3,4-dihydro-2H-benzo[b][1,4,5]oxathiazepin-2-yl)methyl)-4-methylphenyl)-3-(1-ethyl-4-methyl-1H-benzo[d][1,2,3]triazol-5-yl)-2,2-dimethylpropanamido)pyrimidin-2-yl)oxy)acetate], the EC50 fell in the range of 100 to 1000 nM.
With `CC[C@@H]1CN(Cc2cc([C@@H](c3ccc4c(nnn4CC)c3C)C(C)(C)C(=O)N[C@H](CCC(=O)O)C(=O)O)ccc2C)S(=O)(=O)c2ccccc2O1` [Example 210, (R)-2-((S)-3-(3-(((R)-4-ethyl-1,1-dioxido-3,4-dihydro-2H-benzo[b][1,4,5]oxathiazepin-2-yl)methyl)-4-methylphenyl)-3-(1-ethyl-4-methyl-1H-benzo[d][1,2,3]triazol-5-yl)-2,2-dimethylpropanamido)pentanedioic acid] the figure was 100 to 1000 nM.
With `CC[C@@H]1CN(Cc2cc([C@@H](c3ccc4c(nnn4CC)c3C)C(C)(C)C(=O)Nc3cnc(S(C)(=O)=O)nc3)ccc2C)S(=O)(=O)c2cccnc2O1` [Example 131, (S)-3-(3-(((R)-4-Ethyl-1,1-dioxido-3,4-dihydro-2H-pyrido[2,3-b][1,4,5]oxathiazepin-2-yl)methyl)-4-methylphenyl)-3-(1-ethyl-4-methyl-1H-benzo[d][1,2,3]triazol-5-yl)-2,2-dimethyl-N-(2-(methylsulfonyl)pyrimidin-5-yl)propanamide], the 50% effective concentration (EC50) was in the range of 10 to 100 nM.
In the case of `CC[C@@H]1CN(Cc2cc([C@@H](c3ccc4c(nnn4CC)c3C)C(C)(C)C(=O)Nc3cnc(Cl)nc3)ccc2C)S(=O)(=O)c2cccnc2O1` [Example 86, (S)—N-(2-Chloropyrimidin-5-yl)-3-(3-(((R)-4-ethyl-1,1-dioxido-3,4-dihydro-2H-pyrido[2,3-b][1,4,5]oxathiazepin-2-yl)methyl)-4-methylphenyl)-3-(1-ethyl-4-methyl-1H-benzo[d][1,2,3]triazol-5-yl)-2,2-dimethylpropanamide] it was 1 to 10 nM.
In the case of `CC[C@@H]1CN(Cc2cc([C@@H](c3ccc4c(nnn4CC)c3C)C(C)(C)C(N)=O)ccc2C)Cc2ncccc2O1` [Example 184, (S)-3-(3-(((R)-2-ethyl-2,3-dihydropyrido[2,3-f][1,4]oxazepin-4(5H)-yl)methyl)-4-methylphenyl)-3-(1-ethyl-4-methyl-1H-benzo[d][1,2,3]triazol-5-yl)-2,2-dimethylpropanamide] it was 100 to 1000 nM; in that of `CC[C@H]1Cc2ccccc2S(=O)(=O)N(Cc2cc([C@@H](c3ccc4c(nnn4CC)c3C)C(C)(C)C(=O)Nc3nnnn3CC(=O)O)ccc2C)C1` [Example 76, 2-(5-((S)-3-(3-(((S)-4-Ethyl-1,1-dioxido-4,5-dihydrobenzo[f][1,2]thiazepin-2(3H)-yl)methyl)-4-methylphenyl)-3-(1-ethyl-4-methyl-1H-benzo[d][1,2,3]triazol-5-yl)-2,2-dimethylpropanamido)-1H-tetrazol-1-yl)acetic Acid], 10 to 100 nM.
For the compound `CC[C@@H]1CN(Cc2cc([C@@H](c3ccc4c(nnn4CC)c3C)C(C)(C)NC(=O)c3cncnc3)ccc2C)S(=O)(=O)c2ccccc2O1` [Example 146, N-((S)-1-(3-(((R)-4-Ethyl-1,1-dioxido-3,4-dihydro-2H-benzo[b][1,4,5]oxathiazepin-2-yl)methyl)-4-methylphenyl)-1-(1-ethyl-4-methyl-1H-benzo[d][1,2,3]triazol-5-yl)-2-methylpropan-2-yl)pyrimidine-5-carboxamide], the EC50 lay within 10 to 100 nM.
In the case of `CC[C@H]1Cc2ccc(C(F)(F)F)cc2S(=O)(=O)N(Cc2cc([C@@H](c3ccc4c(nnn4CC)c3C)C(C)(C)C(=O)Nc3cncnc3)ccc2C)C1` [Example 92, (S)-3-(3-(((S)-4-Ethyl-1,1-dioxido-8-(trifluoromethyl)-4,5-dihydrobenzo[f][1,2]thiazepin-2(3H)-yl)methyl)-4-methylphenyl)-3-(1-ethyl-4-methyl-1H-benzo[d][1,2,3]triazol-5-yl)-2,2-dimethyl-N-(pyrimidin-5-yl)propanamide] it was 1 to 10 nM; in that of `CC[C@@H]1CN(Cc2cc([C@@H](c3ccc4c(nnn4CC)c3C)C(C)(C)NC(=O)C3CCOC3)ccc2C)S(=O)(=O)c2ccccc2O1` (stereo partly drawn) [Example 134, N-((S)-1-(3-(((R)-4-Ethyl-1,1-dioxido-3,4-dihydro-2H-benzo[b][1,4,5]oxathiazepin-2-yl)methyl)-4-methylphenyl)-1-(1-ethyl-4-methyl-1H-benzo[d][1,2,3]triazol-5-yl)-2-methylpropan-2-yl)tetrahydrofuran-3-carboxamide], 10 to 100 nM.
In the case of `CC[C@@H]1CN(Cc2cc([C@@H](c3ccc4c(nnn4CC)c3C)C(C)(C)C(=O)Nc3cnc(OCCN)nc3)ccc2C)S(=O)(=O)c2ccccc2O1` [Example 198, (S)—N-(2-(2-Aminoethoxy)pyrimidin-5-yl)-3-(3-(((R)-4-ethyl-1,1-dioxido-3,4-dihydro-2H-benzo[b][1,4,5]oxathiazepin-2-yl)methyl)-4-methylphenyl)-3-(1-ethyl-4-methyl-1H-benzo[d][1,2,3]triazol-5-yl)-2,2-dimethylpropanamide] it was 10 to 100 nM.
`CC[C@@H]1CN(Cc2cc([C@H](CC(=O)Nc3cncc(C(F)(F)F)c3)c3ccc4c(nnn4CC)c3C)ccc2C)S(=O)(=O)c2cccnc2O1` [Example 12, (S)-3-(3-(((R)-4-Ethyl-1,1-dioxido-3,4-dihydro-2H-pyrido[2,3-b][1,4,5]oxathiazepin-2-yl)methyl)-4-methylphenyl)-3-(1-ethyl-4-methyl-1H-benzo[d][1,2,3]triazol-5-yl)-N-(5-(trifluoromethyl)pyridin-3-yl)propanamide]: the EC50 fell in the range of 10 to 100 nM.
With `CC[C@@H]1CN(Cc2cc([C@H](CC(=O)N(C)c3cccnc3)c3ccc4c(nnn4CC)c3C)ccc2C)S(=O)(=O)c2cccnc2O1` [Example 169, (S)-3-(3-(((R)-4-ethyl-1,1-dioxido-3,4-dihydro-2H-pyrido[2,3-b][1,4,5]oxathiazepin-2-yl)methyl)-4-methylphenyl)-3-(1-ethyl-4-methyl-1H-benzo[d][1,2,3]triazol-5-yl)-N-methyl-N-(pyridin-3-yl)propanamide] the figure was 100 to 1000 nM.
